Reference: patent publication US20250325517A1, “ORAL DOSAGE FORMS OF ELRAGLUSIB” (Actuate Therapeutics, Inc., priority 2022, published 2025)
“And” between values parts separate entries of the source, which are not always exact repeats. Equal entries are not always repeated. Where two headings read alike, the source gives them in different places. Marks after values point to notes of the source that are not given here.

Experiment: Phase 1 crossover PK study: oral solution fed/fasted vs IV infusion in healthy subjects
Type: in vivo, human
Experimental: This pharmacokinetic (PK) study in healthy subjects was conducted to characterize and compare the PK parameters in plasma following a single intravenous (IV) dose of Elraglusib Injection, Elraglusib Oral Solution after fasting, and Elraglusib Oral Solution after a high-fat meal (fed). The study was intended to assess the potential feasibility of an oral formulation of elraglusib based on systemic exposure being within the biologically active range. In clinical studies conducted to date, elraglusib Injection (10 mg/mL) is administered IV once or twice per week over multiple hours, which requires a significant amount of time and resources by both patients and site personnel. […] See Example 3 above.
The route of administration is by IV infusion after diluting elraglusib for injection with 0.9% Sodium Chloride Injection.
It is a clear, red solution, free of visible particulate matter and a low bioburden liquid dosage form that is self-preserving against microbial growth.
Subjects received a single 3.3 mg/kg dose of each of the following in a randomly assigned order separated by a 2-week period.
During the study, the high fat meal was administered over a period of under 30 minutes (in almost all cases, 28 minutes).
Elraglusib Injection (10 mg/mL) administered as an IV infusion over 60 minutes (concentration in mg/mL and infusion rate in mL/kg/hour could vary depending on the subject's body weight).
PK parameters including AUC, Cmax, Tmax, and t1/2 were analyzed by standard non-compartmental analysis (NCA) methods following each of the elraglusib doses. Log transformed Cmax and AUC parameters in subjects having adequate PK data following at least 1 of the oral and IV doses were used to assess the relative bioavailability of the oral dose (fed and/or fasted) compared to the IV dose.
All efforts were made to obtain the PK samples at the scheduled nominal times relative to dosing. PK samples were assayed using validated analytical methods.

[1] = IV infusion 3.3 mg/kg, human plasma

- % extrap Arithmetic Mean [1]: 1.146%
- % extrap GMean [1]: 0.7979%
- % extrap Median [1]: 1.04%
- AUC∞/Dose Arithmetic Mean [1]: 33.79 ng·h/mL/mg
- AUC∞/Dose GMean [1]: 32.93 ng·h/mL/mg
- AUC∞/Dose Median [1]: 32.7 ng·h/mL/mg
- Clast Arithmetic Mean [1]: 3.045 ng/mL
- Clast GMean [1]: 2.142 ng/mL
- Clast Median [1]: 2.64 ng/mL
- Cmax/Dose Arithmetic Mean [1]: 6.756 ng/mL/mg
- Cmax/Dose GMean [1]: 6.615 ng/mL/mg
- Cmax/Dose Median [1]: 7.02 ng/mL/mg
- R^2 Arithmetic Mean [1]: 0.9904 #
- R^2 GMean [1]: 0.9903 #
- R^2 Median [1]: 0.9964 #
- λZ Arithmetic Mean [1]: 0.0397 h⁻¹
- λZ GMean [1]: 0.0372 h⁻¹
- λZ Median [1]: 0.0346 h⁻¹
- oral bioavailability vs IV, geometric means of AUClast or AUC∞ (human, fasted state): 14-21%
- oral bioavailability vs IV, geometric means of Cmax (human, fasted state): 5-11%
- half-life (human, plasma, 3.3 mg/kg, human, read-out: terminal elimination half-life, rapid clearance subset of subjects): 7 to 11 h
- clearance (human, plasma, iv, 3.3 mg/kg, IV infusion): 7.11 mL/min/kg and 519 mL/min
- AUC (human, plasma, iv, 3.3 mg/kg, IV infusion 3.3 mg/kg, human plasma, read-out: AUC24 Arithmetic Mean): 6850 ng·h/mL
- AUC (human, plasma, iv, 3.3 mg/kg, IV infusion 3.3 mg/kg, human plasma, read-out: AUC24 GMean): 6730 ng·h/mL
- AUC (human, plasma, iv, 3.3 mg/kg, IV infusion 3.3 mg/kg, human plasma, read-out: AUC24 Median): 7200 ng·h/mL
- AUC (human, plasma, iv, 3.3 mg/kg, IV infusion 3.3 mg/kg, human plasma, read-out: AUC48 Arithmetic Mean): 7590 ng·h/mL
- AUC (human, plasma, iv, 3.3 mg/kg, IV infusion 3.3 mg/kg, human plasma, read-out: AUC48 GMean): 7450 ng·h/mL
- AUC (human, plasma, iv, 3.3 mg/kg, IV infusion 3.3 mg/kg, human plasma, read-out: AUC48 Median): 7980 ng·h/mL
- AUC (human, plasma, iv, 3.3 mg/kg, IV infusion 3.3 mg/kg, human plasma, read-out: AUC72 Arithmetic Mean): 7840 ng·h/mL
- AUC (human, plasma, iv, 3.3 mg/kg, IV infusion 3.3 mg/kg, human plasma, read-out: AUC72 GMean): 7690 ng·h/mL
- AUC (human, plasma, iv, 3.3 mg/kg, IV infusion 3.3 mg/kg, human plasma, read-out: AUC72 Median): 8190 ng·h/mL
- AUC (human, plasma, iv, 3.3 mg/kg, IV infusion 3.3 mg/kg, human plasma, read-out: AUC96 Arithmetic Mean): 7980 ng·h/mL
- AUC (human, plasma, iv, 3.3 mg/kg, IV infusion 3.3 mg/kg, human plasma, read-out: AUC96 GMean): 7810 ng·h/mL
- AUC (human, plasma, iv, 3.3 mg/kg, IV infusion 3.3 mg/kg, human plasma, read-out: AUC96 Median): 8250 ng·h/mL
- AUC(0-t) (human, plasma, iv, 3.3 mg/kg, IV infusion 3.3 mg/kg, human plasma, read-out: AUClast Arithmetic Mean): 7970 ng·h/mL
- AUC(0-t) (human, plasma, iv, 3.3 mg/kg, IV infusion 3.3 mg/kg, human plasma, read-out: AUClast GMean): 7810 ng·h/mL
- AUC(0-t) (human, plasma, iv, 3.3 mg/kg, IV infusion 3.3 mg/kg, human plasma, read-out: AUClast Median): 8250 ng·h/mL
- AUC(0-inf) (human, plasma, iv, 3.3 mg/kg, IV infusion 3.3 mg/kg, human plasma, read-out: AUC∞ Arithmetic Mean): 8070 ng·h/mL
- AUC(0-inf) (human, plasma, iv, 3.3 mg/kg, IV infusion 3.3 mg/kg, human plasma, read-out: AUC∞ GMean): 7900 ng·h/mL
- AUC(0-inf) (human, plasma, iv, 3.3 mg/kg, IV infusion 3.3 mg/kg, human plasma, read-out: AUC∞ Median): 8260 ng·h/mL
- Cmax (human, plasma, iv, 3.3 mg/kg, IV infusion 3.3 mg/kg, human plasma, read-out: Cmax Arithmetic Mean): 1600 ng/mL
- Cmax (human, plasma, iv, 3.3 mg/kg, IV infusion 3.3 mg/kg, human plasma, read-out: Cmax GMean): 1590 ng/mL
- Cmax (human, plasma, iv, 3.3 mg/kg, IV infusion 3.3 mg/kg, human plasma, read-out: Cmax Median): 1570 ng/mL
- Tmax (human, plasma, iv, 3.3 mg/kg, IV infusion 3.3 mg/kg, human plasma, read-out: Tmax Arithmetic Mean): 1.22 h
- Tmax (human, plasma, iv, 3.3 mg/kg, IV infusion 3.3 mg/kg, human plasma, read-out: Tmax GMean): 1.13 h
- Tmax (human, plasma, iv, 3.3 mg/kg, IV infusion 3.3 mg/kg, human plasma, read-out: Tmax Median): 1.32 h
- half-life (human, plasma, iv, 3.3 mg/kg, IV infusion 3.3 mg/kg, human plasma, read-out: t1/2 Arithmetic Mean (converted)): 19.6 h
- half-life (human, plasma, iv, 3.3 mg/kg, IV infusion 3.3 mg/kg, human plasma, read-out: t1/2 GMean (converted)): 18.6 h
- half-life (human, plasma, iv, 3.3 mg/kg, IV infusion 3.3 mg/kg, human plasma, read-out: t1/2 Median (converted)): 20.1 h
- AUC(0-t) (human, plasma, iv, 3.3 mg/kg, IV infusion 3.3 mg/kg, read-out: AUClast LS Means): 7810 ng·h/mL
- AUC(0-inf) (human, plasma, iv, 3.3 mg/kg, IV infusion 3.3 mg/kg, read-out: AUC∞ LS Means): 7900 ng·h/mL
- Cmax (human, plasma, iv, 3.3 mg/kg, IV infusion 3.3 mg/kg, read-out: Cmax LS Means): 1590 ng/mL
- Cmax (human, plasma, iv, 3.3 mg/kg, human, 3.3 mg/kg IV infusion, read-out: mean Cmax (arithmetic mean)): 1600 ng/mL
- AUC(0-inf) (human, plasma, iv, 3.3 mg/kg, human, 3.3 mg/kg IV, read-out: mean AUC∞): 8070 ng·h/mL
- Vd (human, plasma, iv, 3.3 mg/kg, human, IV infusion, read-out: volume of distribution): 11.2 L/kg and 822 L
- half-life (human, plasma, other: IV or oral, 3.3 mg/kg, human, read-out: terminal elimination half-life, rapid clearance subset of subjects): 6 to 11 h
- half-life (human, plasma, other: oral solution (fed and fasted) and IV infusion, 3.3 mg/kg, human, all 3 treatments, read-out: terminal elimination half-life, majority of subjects): 15 to 25 h
- half-life (human, plasma, other: oral solution (fed and fasted) and IV infusion, 3.3 mg/kg, human, all three treatments, read-out: mean terminal elimination half-life): 16 to 21 h
- Cmax (human, plasma, po, 3.3 mg/kg, human, 3.3 mg/kg oral solution, fasted state, read-out: mean Cmax (arithmetic mean)): 172 ng/mL
- Cmax (human, plasma, po, 3.3 mg/kg, human, 3.3 mg/kg oral solution, fed state, read-out: mean Cmax (arithmetic mean)): 592 ng/mL
- AUC(0-inf) (human, plasma, po, 3.3 mg/kg, human, 3.3 mg/kg oral, fasted state, read-out: mean AUC∞): 1810 ng·h/mL
- AUC(0-inf) (human, plasma, po, 3.3 mg/kg, human, 3.3 mg/kg oral, fed state, read-out: mean AUC∞): 5000 ng·h/mL
- bioavailability (human, plasma, po, 3.3 mg/kg, human, 3.3 mg/kg, fasted state (Cmax and AUC based), read-out: oral bioavailability): 5 to 21%
- bioavailability (human, plasma, po, 3.3 mg/kg, human, 3.3 mg/kg, fed state (Cmax and AUC based), read-out: oral bioavailability): 19 to 63%
- half-life (human, plasma, po, 3.3 mg/kg, human, subject 113, oral fed state, read-out: longest terminal half-life (converted)): 50.5 h
- half-life (human, plasma, po, 3.3 mg/kg, human, subject 118, oral fasted state, read-out: shortest half-life (converted)): 6.92 h
- bioavailability (human, plasma, po, 3.3 mg/kg, human, read-out: relative bioavailability following oral dosing in the fed state, one subject (105)): 91%
- AUC (human, plasma, po, 3.3 mg/kg, oral 3.3 mg/kg fasted state, human plasma, read-out: AUC24 Arithmetic Mean): 1230 ng·h/mL
- AUC (human, plasma, po, 3.3 mg/kg, oral 3.3 mg/kg fasted state, human plasma, read-out: AUC24 GMean): 1010 ng·h/mL
- AUC (human, plasma, po, 3.3 mg/kg, oral 3.3 mg/kg fasted state, human plasma, read-out: AUC24 Median): 1070 ng·h/mL
- AUC (human, plasma, po, 3.3 mg/kg, oral 3.3 mg/kg fasted state, human plasma, read-out: AUC48 Arithmetic Mean): 1620 ng·h/mL
- AUC (human, plasma, po, 3.3 mg/kg, oral 3.3 mg/kg fasted state, human plasma, read-out: AUC48 GMean): 1340 ng·h/mL
- AUC (human, plasma, po, 3.3 mg/kg, oral 3.3 mg/kg fasted state, human plasma, read-out: AUC48 Median): 1420 ng·h/mL
- AUC (human, plasma, po, 3.3 mg/kg, oral 3.3 mg/kg fasted state, human plasma, read-out: AUC72 Arithmetic Mean): 1740 ng·h/mL
- AUC (human, plasma, po, 3.3 mg/kg, oral 3.3 mg/kg fasted state, human plasma, read-out: AUC72 GMean): 1430 ng·h/mL
- AUC (human, plasma, po, 3.3 mg/kg, oral 3.3 mg/kg fasted state, human plasma, read-out: AUC72 Median): 1530 ng·h/mL
- AUC (human, plasma, po, 3.3 mg/kg, oral 3.3 mg/kg fasted state, human plasma, read-out: AUC96 Arithmetic Mean): 1780 ng·h/mL
- AUC (human, plasma, po, 3.3 mg/kg, oral 3.3 mg/kg fasted state, human plasma, read-out: AUC96 GMean): 1460 ng·h/mL
- AUC (human, plasma, po, 3.3 mg/kg, oral 3.3 mg/kg fasted state, human plasma, read-out: AUC96 Median): 1560 ng·h/mL
- AUC(0-t) (human, plasma, po, 3.3 mg/kg, oral 3.3 mg/kg fasted state, human plasma, read-out: AUClast Arithmetic Mean): 1780 ng·h/mL
- AUC(0-t) (human, plasma, po, 3.3 mg/kg, oral 3.3 mg/kg fasted state, human plasma, read-out: AUClast GMean): 1460 ng·h/mL
- AUC(0-t) (human, plasma, po, 3.3 mg/kg, oral 3.3 mg/kg fasted state, human plasma, read-out: AUClast Median): 1560 ng·h/mL
- AUC(0-inf) (human, plasma, po, 3.3 mg/kg, oral 3.3 mg/kg fasted state, human plasma, read-out: AUC∞ Arithmetic Mean): 1810 ng·h/mL
- AUC(0-inf) (human, plasma, po, 3.3 mg/kg, oral 3.3 mg/kg fasted state, human plasma, read-out: AUC∞ GMean): 1480 ng·h/mL
- AUC(0-inf) (human, plasma, po, 3.3 mg/kg, oral 3.3 mg/kg fasted state, human plasma, read-out: AUC∞ Median): 1590 ng·h/mL
- CL/F (human, plasma, po, 3.3 mg/kg, oral 3.3 mg/kg fasted state, human plasma, read-out: CL Median (converted)): 34.5 mL/min/kg
- Cmax (human, plasma, po, 3.3 mg/kg, oral 3.3 mg/kg fasted state, human plasma, read-out: Cmax Arithmetic Mean): 172 ng/mL
- Cmax (human, plasma, po, 3.3 mg/kg, oral 3.3 mg/kg fasted state, human plasma, read-out: Cmax GMean): 133 ng/mL
- Cmax (human, plasma, po, 3.3 mg/kg, oral 3.3 mg/kg fasted state, human plasma, read-out: Cmax Median): 169 ng/mL
- Tmax (human, plasma, po, 3.3 mg/kg, oral 3.3 mg/kg fasted state, human plasma, read-out: Tmax Arithmetic Mean): 2.7 h
- Tmax (human, plasma, po, 3.3 mg/kg, oral 3.3 mg/kg fasted state, human plasma, read-out: Tmax GMean): 2.42 h
SMILES: Cn1cc(C2=C(c3coc4ccc(F)cc34)C(=O)NC2=O)c2cc3c(cc21)OCO3 [elraglusib, 3-(5-fluorobenzofuran-3-yl)-4-(5-methyl-5H-[1,3]dioxolo[4,5-f]indol-7-yl)-1H-pyrrole-2,5-dione]
